Assay results as given in BindingDB's records for doi:10.1016/j.bmc.2005.09.055 (Uk Centre For Cancer Therapeutics, 2006).

Tests used:
[1] = biological target: RAC-beta serine/threonine-protein kinase (Homo sapiens, UniProt P31751); assay: PKB In Vitro Enzyme Assay
[2] = biological target: cAMP-dependent protein kinase catalytic subunit alpha (Bos taurus, UniProt P00517); assay: PKA In Vitro Enzyme Assay

Chain of RAC-beta serine/threonine-protein kinase (P31751 whole entry): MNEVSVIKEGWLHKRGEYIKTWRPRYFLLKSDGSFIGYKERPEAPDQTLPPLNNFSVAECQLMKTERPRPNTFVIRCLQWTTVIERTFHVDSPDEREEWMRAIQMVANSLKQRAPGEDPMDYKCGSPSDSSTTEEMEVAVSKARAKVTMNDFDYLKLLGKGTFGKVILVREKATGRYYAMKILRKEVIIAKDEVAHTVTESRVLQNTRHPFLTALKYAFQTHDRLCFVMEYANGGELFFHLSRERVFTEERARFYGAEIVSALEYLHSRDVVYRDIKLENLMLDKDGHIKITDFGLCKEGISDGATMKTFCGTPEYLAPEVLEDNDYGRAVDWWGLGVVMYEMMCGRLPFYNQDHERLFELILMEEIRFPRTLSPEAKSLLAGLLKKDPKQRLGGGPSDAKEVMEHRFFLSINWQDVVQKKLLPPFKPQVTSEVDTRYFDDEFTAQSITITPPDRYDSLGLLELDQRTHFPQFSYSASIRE

Row | SMILES | IC50 ([1]; pH 7.2, 22 °C) | IC50 [1] | also measured
1 | O=S(=O)(NCCNCCOCc1ccc(Cl)c(Cl)c1)c1cccc2cnccc12 [Isoquinoline-5-sulfonic acid (2-(2-(3,4-dichlorobenzyloxy)ethylamino)ethyl)amide] | 0.21 µM | – | –
2 | O=S(=O)(NCCNCCOCc1cccc(Cl)c1)c1cccc2cnccc12 [Isoquinoline-5-sulfonic acid (2-(2-(3-chlorobenzyloxy)ethylamino)ethyl)amide] | 0.37 µM | – | IC50 ([2]; pH 7.2, 22 °C): 0.41 µM
3 | COc1cccc(COCCNCCNS(=O)(=O)c2cccc3cnccc23)c1 [Isoquinoline-5-sulfonic acid (2-(2-(3-methoxybenzyloxy)ethylamino)ethyl)amide] | 2.2 µM | – | –
4 | Cc1ccc(COCCNCCNS(=O)(=O)c2cccc3cnccc23)cc1 [Isoquinoline-5-sulfonic acid (2-(2-(4-methylbenzyloxy)ethylamino)ethyl)amide] | 1.53 µM | – | –
5 | O=S(=O)(NC[C@H]1CC[C@@H](COCc2ccc(Cl)cc2)N1)c1cccc2cnccc12 [Isoquinoline-5-sulfonic acid (2R*,5S*)-(5-(4-chlorobenzyloxymethyl)pyrrolidin-2-yl-methyl)amide] | – | 1.7 µM | –
6 | O=S(=O)(NC[C@@H]1C[C@@H](OCc2ccc(Cl)cc2)CN1)c1cccc2cnccc12 [Isoquinoline-5-sulfonic acid (2S,4R)-(4-(4-chlorobenzyloxy)pyrrolidin-2-yl-methyl)amide] | – | 1.7 µM | IC50 [2]: 0.4 µM
7 | O=S(=O)(NC[C@@H]1C[C@H](OCc2ccccc2)CN1)c1cccc2cnccc12 [Isoquinoline-5-sulfonic acid (2S,4S)-(4-(benzyloxy)pyrrolidin-2-yl-methyl)amide] | – | 3.4 µM | –
8 | O=S(=O)(NCC1CCNCC1)c1cccc2cnccc12 [Isoquinoline-5-sulfonic acid (piperidin-4-ylmethyl)amide] | – | 57 µM | –
9 | O=S(=O)(c1cccc2cnccc12)N1CCNCC1 [Isoquinoline-5-sulfonic acid piperazin-1 ylamide] | 23 µM | – | –
10 | O=S(=O)(NC1CCNC1)c1cccc2cnccc12 (stereo unspecified) [Isoquinoline-5-sulfonic acid pyrrolidin-3-ylamide] | – | 3.9 µM | –
11 | N[C@H]1CC[C@H](NS(=O)(=O)c2cccc3cnccc23)CC1 [Isoquinoline-5-sulfonic acid trans-(4-aminocyclohexyl)amide] | – | 8.1 µM | IC50 [2]: 5.7 µM
12 | O=S(=O)(NCCNCCOCc1ccccc1)c1cccc2cnccc12 [N-(2-{[2-(benzyloxy)ethyl]amino}ethyl)isoquinoline-5-sulfonamide] | 1.17 µM | – | –
13 | NCCCNS(=O)(=O)c1cccc2cnccc12 [N-(3-aminopropyl)isoquinoline-5-sulfonamide] | 4.8 µM | – | –
14 | O=S(=O)(NC1CCNCC1)c1cccc2cnccc12 [N-(piperidin-4-yl)isoquinoline-5-sulfonamide] | 8.7 µM | – | IC50 ([2]; pH 7.2, 22 °C): 3.9 µM
15 | CNCCNS(=O)(=O)c1cccc2cnccc12 [N-[2-(methylamino)ethyl]isoquinoline-5-sulfonamide] | – | 7.6 µM | –
16 | O=S(=O)(NCCNCCOCc1ccccc1Cl)c1cccc2cnccc12 [N-[2-({2-[(2-chlorophenyl)methoxy]ethyl}amino)ethyl]isoquinoline-5-sulfonamide] | 0.96 µM | – | IC50 ([2]; pH 7.2, 22 °C): 1 µM
17 | COc1ccccc1COCCNCCNS(=O)(=O)c1cccc2cnccc12 [N-[2-({2-[(2-methoxyphenyl)methoxy]ethyl}amino)ethyl]isoquinoline-5-sulfonamide] | 6.6 µM | – | –
18 | Cc1ccccc1COCCNCCNS(=O)(=O)c1cccc2cnccc12 [N-[2-({2-[(2-methylphenyl)methoxy]ethyl}amino)ethyl]isoquinoline-5-sulfonamide] | 0.57 µM | – | –

Second part, led by results:

Row | IC50 ([1]; pH 7.2, 22 °C) | IC50 [1] | SMILES | also measured
19 | 1.1 µM | – | Cc1cccc(COCCNCCNS(=O)(=O)c2cccc3cnccc23)c1 [N-[2-({2-[(3-methylphenyl)methoxy]ethyl}amino)ethyl]isoquinoline-5-sulfonamide] | –
20 | 2.9 µM | – | COc1ccc(COCCNCCNS(=O)(=O)c2cccc3cnccc23)cc1 [N-[2-({2-[(4-methoxyphenyl)methoxy]ethyl}amino)ethyl]isoquinoline-5-sulfonamide] | –
21 | – | 6.6 µM | O=S(=O)(N[C@H]1CC[C@H](NCc2ccccc2)CC1)c1cccc2cnccc12 [N-[4-(benzylamino)cyclohexyl]isoquinoline-5-sulfonamide] | –
22 | – | 39 µM | O=S(=O)(NC[C@@H]1CCCN1)c1cccc2cnccc12 [N-[(2S)-pyrrolidin-2-ylmethyl]isoquinoline-5-sulfonamide] | –
23 | – | 5.2 µM | O=S(=O)(N[C@H]1CN[C@H](COCc2ccc(Cl)cc2)C1)c1cccc2cnccc12 [N-[(3R,5S)-5-{[(4-chlorophenyl)methoxy]methyl}pyrrolidin-3-yl]isoquinoline-5-sulfonamide] | –
24 | – | 0.52 µM | O=c1[nH]ccc2c(S(=O)(=O)N[C@@H]3CN[C@H](COCc4ccc(Cl)cc4)C3)cccc12 [N-[(3S,5S)-5-{[(4-chlorophenyl)methoxy]methyl}pyrrolidin-3-yl]-1-hydroxyisoquinoline-5-sulfonamide] | IC50 [2]: 1.3 µM
25 | – | 2.6 µM | Cc1cncc2cccc(S(=O)(=O)N[C@@H]3CN[C@H](COCc4ccc(Cl)cc4)C3)c12 [N-[(3S,5S)-5-{[(4-chlorophenyl)methoxy]methyl}pyrrolidin-3-yl]-4-methylisoquinoline-5-sulfonamide] | IC50 [2]: 0.32 µM
26 | – | 0.78 µM | O=S(=O)(N[C@@H]1CN[C@H](COCc2ccc(Cl)cc2)C1)c1cccc2cnccc12 [N-[(3S,5S)-5-{[(4-chlorophenyl)methoxy]methyl}pyrrolidin-3-yl]isoquinoline-5-sulfonamide] | IC50 [2]: 0.42 µM
27 | – | 0.48 µM | O=S(=O)(NC[C@@H]1C[C@H](OCc2ccc(Cl)cc2)CN1)c1cccc2cnccc12 [N-{[(2S,4S)-4-[(4-chlorophenyl)methoxy]pyrrolidin-2-yl]methyl}isoquinoline-5-sulfonamide] | IC50 [2]: 0.17 µM
